Conditions: mouse, in vivo, iv

## CC(=NNc1ccc(I)cn1)c1ccc2c(c1)C1C=CCC1C(c1cc3c(cc1Br)OCO3)N2 (stereo not shown) [Compound 9, N-{1-[4-(6-Bromo-benzo[1,3]dioxol-5-yl)-3a,4,5,9b-tetrahydro-3H-cyclopenta[c]quinolin-8-yl]-ethylidene}-N′-(5-iodo-pyridin-2-yl)-hydrazine]
  metabolism and clearance (in words): rapidly metabolized and eliminated via the hepatobiliary system
